Format in all cases: in vivo
In experiment [1] the test system is Johnsongrass (Sorghum halepense). Put plainly: post-emergence herbicidal activity, johnsongrass. The conditions noted are these: 1 Kg/Ha, about fourteen days, read-out: post-emergence herbicidal activity (% control) SORHA. On the procedure:
(§1) This example sets forth the methods of herbicidal testing conducted on the specific compounds set forth below. Specifically, the compounds referenced below were tested for pre- and post-emergence herbicidal activity using a variety of crops and weeds. The test plants include, but are not limited to, soybean (Glycine max -- var. Winchester), field corn (Zea mays var. Pioneer 3732), wheat (Triticum aestivum var. Lew), morningglory (Ipomea lacunosa or Ipomea hederacea), velvetleaf (Abutilon theophrasti), green foxtail (Setaria viridis), Johnsongrass (Sorghum halepense), blackgrass (Aloepecurus myosuroides), common chickweed (Stellaria media), and common cocklebur (Xanthium strumarium L.).
(§2) In the post-emergence test, seeds of the plant species named above were planted in flats containing the appropriate soil mixture where they were maintained to allow the seeds to germinate. When the plants in these flats reached the proper stage of growth, flats for the pre-emergence tests were planted in a like manner. The flats containing the post-emergence and pre-emergence test plant species were then sprayed with an appropriately concentrated water/acetone solution of test compound. Once treated the flats were maintained, along with untreated controls, for about fourteen days. All treated plants were then examined for phytotoxicity, which was expressed as percent control where 0 is no effect and 100 is complete control. Effective rates of application for the compounds of the present invention range from 0.001 to 3 kg/ha, more likely from […] to 1 Kg/ha.
(§3) Herbicidal activity data at selected application rates are in Tables 4 and 5. The test compounds are identified by numbers correspond to those in Table 1.
(§4) SOY is soybean, WHT is wheat, CRN is corn, ABUTH is velvetleaf, IPOSS is
(§5) morningglory, STEME is chickweed, XANPE is cocklebur, ALOMY is blackgrass,
(§6) Rate of application of test compound is 1 Kg/Ha. The definitions as shown under Table 4 apply to Table 5.

The subject of experiment [2] is common chickweed (Stellaria media). Put plainly: post-emergence herbicidal activity, chickweed. The conditions noted are these: 1 Kg/Ha, about fourteen days, read-out: post-emergence herbicidal activity (% control) STEME. As to the method:
as §1, §2, §3, §4, §5, §6

In experiment [3] the test system is soybean (Glycine max -- var. Winchester). Nature of the experiment: pre-emergence herbicidal activity, soybean. The following applies: 1 kg/Ha, about fourteen days, read-out: pre-emergence herbicidal activity (% control) SOY. On the procedure: as §1, §2, §3
(§7) Rate of application of test compound is 1 kg/Ha
as §4
(§8) morningglory, STEME is chickweed, XANPE is cocklebur, ALOMY is blackgrass, […]

The test system of experiment [4] is green foxtail (Setaria viridis). Nature of the experiment: pre-emergence herbicidal activity, green foxtail. The conditions noted are these: 1 kg/Ha, about fourteen days, read-out: pre-emergence herbicidal activity (% control) SETVI. On the procedure: as §1, §2, §3, §7, §4, §8
Experiment [5] concerns velvetleaf (Abutilon theophrasti). Nature of the experiment: pre-emergence herbicidal activity, velvetleaf. The conditions noted are these: 1 kg/Ha, about fourteen days, read-out: pre-emergence herbicidal activity (% control) ABUTH. On the procedure:
as §1, §2, §3, §7, §4, §8

Experiment [6] relates to wheat (Triticum aestivum var. Lew). Nature of the experiment: pre-emergence herbicidal activity, wheat. The conditions noted are these: 1 kg/Ha, about fourteen days, read-out: pre-emergence herbicidal activity (% control) WHT. As to the method: as §1, §2, §3, §7, §4, §8
Experiment [7] has as its system morningglory (Ipomea lacunosa or Ipomea hederacea). Nature of the experiment: post-emergence herbicidal activity, morningglory. The following applies: Ipomoea, 1 Kg/Ha, about fourteen days, read-out: post-emergence herbicidal activity (% control) IPOSS. As to the method: as §1, §2, §3, §4, §5, §6
For experiment [8], the system named is soybean (Glycine max -- var. Winchester). Put plainly: post-emergence herbicidal activity, soybean. The following applies: 1 Kg/Ha, about fourteen days, read-out: post-emergence herbicidal activity (% control) SOY. As to the method: as §1, §2, §3, §4, §5, §6
For experiment [9], the system named is common cocklebur (Xanthium strumarium L.). Put plainly: post-emergence herbicidal activity, cocklebur. The following applies: 1 Kg/Ha, about fourteen days, read-out: post-emergence herbicidal activity (% control) XANPE. As to the method: as §1, §2, §3, §4, §5, §6
Experiment [10] deals with morningglory (Ipomea lacunosa or Ipomea hederacea). Nature of the experiment: pre-emergence herbicidal activity, morningglory. The conditions noted are these: Ipomoea, 1 kg/Ha, about fourteen days, read-out: pre-emergence herbicidal activity (% control) IPOSS. As to the method: as §1, §2, §3, §7, §4, §8
Experiment [11] relates to green foxtail (Setaria viridis). Put plainly: post-emergence herbicidal activity, green foxtail. The following applies: 1 Kg/Ha, about fourteen days, read-out: post-emergence herbicidal activity (% control) SETVI. On the procedure:
as §1, §2, §3, §4, §5, §6

In experiment [12] the test system is field corn (Zea mays var. Pioneer 3732). Put plainly: post-emergence herbicidal activity, corn. The following applies: 1 Kg/Ha, about fourteen days, read-out: post-emergence herbicidal activity (% control) CRN. On the procedure: as §1, §2, §3, §4, §5, §6
In experiment [13] the test system is blackgrass (Aloepecurus myosuroides). Put plainly: pre-emergence herbicidal activity, blackgrass. The following applies: Alopecurus myosuroides, 1 kg/Ha, about fourteen days, read-out: pre-emergence herbicidal activity (% control) ALOMY. On the procedure: as §1, §2, §3, §7, §4, §8
Experiment [14] has as its system field corn (Zea mays var. Pioneer 3732). Put plainly: pre-emergence herbicidal activity, corn. The following applies: 1 kg/Ha, about fourteen days, read-out: pre-emergence herbicidal activity (% control) CRN. On the procedure: as §1, §2, §3, §7, §4, §8
Experiment [15] has as its system wheat (Triticum aestivum var. Lew). Put plainly: post-emergence herbicidal activity, wheat. The conditions noted are these: 1 Kg/Ha, about fourteen days, read-out: post-emergence herbicidal activity (% control) WHT. On the procedure: as §1, §2, §3, §4, §5, §6
For experiment [16], the system named is velvetleaf (Abutilon theophrasti). Nature of the experiment: post-emergence herbicidal activity, velvetleaf. The following applies: 1 Kg/Ha, about fourteen days, read-out: post-emergence herbicidal activity (% control) ABUTH. As to the method:
as §1, §2, §3, §4, §5, §6

The test system of experiment [17] is common chickweed (Stellaria media). Nature of the experiment: pre-emergence herbicidal activity, chickweed. The following applies: 1 kg/Ha, about fourteen days, read-out: pre-emergence herbicidal activity (% control) STEME. As to the method:
as §1, §2, §3, §7, §4, §8

For experiment [18], the system named is common cocklebur (Xanthium strumarium L.). Put plainly: pre-emergence herbicidal activity, cocklebur. The following applies: 1 kg/Ha, about fourteen days, read-out: pre-emergence herbicidal activity (% control) XANPE. As to the method:
as §1, §2, §3, §7, §4, §8

Turning to `COc1ccc(CN2Cc3c(-n4c(=O)cc(C(F)(F)F)n(C)c4=O)ccc(Cl)c3C2=O)cc1` [Compound 25], the activity at 1000 g/ha in experiment [1] was determined as 75%; in [2] it was 80%; in [3], 50%; in experiment [4] it was 100%; in experiment [5] it was 100%; in experiment [6], 60%. For the same molecule, the activity at 1000 g/ha in experiment [7] was 90%; in experiment [8] it was 80%; in experiment [9], 60%; in experiment [10] it was 70%; in experiment [11], 100%; in experiment [12] it was 90%. Further, the activity at 1000 g/ha in experiment [13] turned out to be 75%; in [14] it was 95%; in experiment [15] it was 40%; in experiment [16] it was 100%; in [17] it was 100%; in experiment [18] it was 40%.

For the molecule `COC(=O)CCN1Cc2c(-n3c(=O)cc(C(F)(F)F)n(C)c3=O)ccc(Cl)c2C1=O` [Compound 26], the activity at 1000 g/ha was 80% in experiment [1]; 100% in experiment [2]; 100% in experiment [3]; 80% in experiment [4]; 100% in experiment [5]; 50% in experiment [6]. Moreover, the activity at 1000 g/ha was determined as 80% in experiment [7]; 100% in experiment [8]; 100% in experiment [9]; 80% in experiment [10]; 100% in experiment [11]; 95% in experiment [12]. Further, the activity at 1000 g/ha in experiment [13] is 80%; in experiment [14], 80%; in experiment [15], 70%; in experiment [16], 100%; in [17] it was 100%; in experiment [18], 100%.

Take `Cn1c(C(F)(F)F)cc(=O)n(-c2ccc(Cl)c3c2CN(CC(F)(F)F)C3=O)c1=O` [Compound 28]: the activity at 1000 g/ha in experiment [1], in [2], in experiment [3], in experiment [4], in experiment [5] and in [6] was 100% in each case. In addition, the activity at 1000 g/ha in experiment [7], in [8], in experiment [9], in [10], in [11] and in [12] was 100% in each case. Moreover, the activity at 1000 g/ha in experiment [13], in [14], in experiment [15], in experiment [16], in [17] and in experiment [18] was 100% each time.

Turning to `Cn1c(C(F)(F)F)cc(=O)n(-c2ccc(Cl)c3c2CN(CC2CC2)C3=O)c1=O` [Compound 29], the activity at 1000 g/ha in experiment [1], in [2], in experiment [3], in experiment [4], in [5] and in experiment [6] was 100% throughout. The activity at 1000 g/ha in experiment [7], in experiment [8], in experiment [9], in [10], in [11] and in experiment [12] was 100% each time. The activity at 1000 g/ha in experiment [13], in experiment [14], in experiment [15], in experiment [16], in [17] and in experiment [18] was 100% in each case.

As to `Cn1c(C(F)(F)F)cc(=O)n(-c2ccc(Cl)c3c2CN(CC#N)C3=O)c1=O` [Compound 30], the activity at 1000 g/ha in experiment [1], in [2], in experiment [3], in [4], in experiment [5] and in experiment [6] was 100% in each case. Further, the activity at 1000 g/ha in experiment [7] turned out to be 100%; in [8], 100%; in experiment [9], 100%; in experiment [10], 100%; in experiment [11] it was 100%; in experiment [12], 95%. The activity at 1000 g/ha in experiment [13] stood at 100%; in experiment [14] it was 100%; in experiment [15], 60%; in [16], 100%; in [17], 100%; in [18] it was 100%.

For the molecule `COCN1Cc2c(-n3c(=O)cc(C(F)(F)F)n(C)c3=O)ccc(Cl)c2C1=O` [Compound 31], the activity at 1000 g/ha in experiment [1], in experiment [2], in [3], in experiment [4], in experiment [5] and in [6] was 100% throughout. The activity at 1000 g/ha in experiment [7], in experiment [8], in experiment [9], in experiment [10], in experiment [11] and in experiment [12] was 100% throughout. Moreover, the activity at 1000 g/ha in experiment [13], in experiment [14], in [15], in experiment [16], in experiment [17] and in [18] was 100% throughout.

Regarding `CC(C)N1Cc2c(-n3c(=O)cc(C(F)(F)F)n(N)c3=O)ccc(Cl)c2C1=O` [Compound 70], the activity at 1000 g/ha in experiment [1], in experiment [2], in [3], in [4], in experiment [5] and in experiment [6] was 100% in each case. The activity at 1000 g/ha in experiment [7], in experiment [8], in [9], in [10], in experiment [11] and in [12] was 100% each time. Besides, the activity at 1000 g/ha in experiment [13], in experiment [14], in experiment [15], in experiment [16], in experiment [17] and in experiment [18] was 100% throughout.

The values are drawn from patent US6277847A, “Herbicidal isoindolinonyl-and 3,4-dihydroisoquinolonyl-substituted heterocycles” (FMC Corporation, priority 2000, dated 2001).
